The record followed here is patent publication US10287267B2, “Isoquinolin-3-yl carboxamides and preparation and use thereof” (Samumed, LLC, priority 2016, dated 2019).

Assay [1] relates to Wnt pathway (Sp5-Luc reporter, TCF/LEF binding sites) in SW480 colon carcinoma cells. Nature of the assay: Screening assay for Wnt activity: Sp5-Luc reporter gene assay.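 For all read-outs here: firefly luciferase luminescence read in stably transduced SW480 cells carrying the Sp5 promoter reporter with eight TCF/LEF sites, compounds given in 0.1% DMSO final.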 Format: cell-based, human. To be noted: Homo sapiens; for EC50: Sp5-Luc reporter, SW480 cells, 36 to 48 hours; for inhibition at 10 µM: SW480, read-out: percent inhibition at 10 μM. In general terms: Reporter assays use an easily measured gene product as a stand-in for the process of interest.
Method: The screening assay for Wnt activity is described as follows.
Following incubation, 15 μl of BriteLite Plus luminescence reagent (Perkin Elmer) was added to each well of the 384-well assay plates. The plates were placed on an orbital shaker for 2 min and then luminescence was quantified using the Envision (Perkin Elmer) plate reader.

Assay [2] deals with recombinant DYRK1A kinase (Homo sapiens (Human), UniProt Q13627). Description: DYRK1A kinase assay (Ser/Thr 18 peptide Z-lyte FRET).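 Note: Read-out is the coumarin to fluorescein emission ratio, referenced to unphosphorylated (0%) and phosphorylated (100%) Ser/Thr 18 peptide controls, values from dose-response curves by non-linear regression.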 The assay is classed as biochemical. The following applies: 30 μM ATP, 1 h room temperature.
The target of the next assay is recombinant GSK3β kinase (Homo sapiens (Human), UniProt P49841). Nature of the assay: GSK3β kinase assay (Ser/Thr 09 peptide Z-lyte FRET).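 Note: kinase activity read as coumarin to fluorescein emission ratio, 11-point threefold dilutions from 10 µM to 0.0003 µM in duplicate, unphosphorylated and phosphorylated peptide as 0% and 100% controls.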 To be noted: 46 μM ATP, 1 h room temperature. Format: biochemical.
Assay [3] has as its system SW480 colon carcinoma cells. Nature of the assay: Cell viability assay (CellTiter-Glo). Format: cell-based, human. To be noted: Homo sapiens; for EC50: 96 h, SW480 cells, CellTiter-Glo, four days incubation; for inhibition at 10 µM: SW480, read-out: percent inhibition at 10 μM.
In assay [4] the test system is α-smooth muscle actin (αSMA) positive LL29 cells. Description: Inhibition of fibrotic process: αSMA in TGF-β1 treated primary human fibroblasts from IPF patients.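 Note: controls were TGF-β1 stimulated wells with DMSO vehicle (positive) and cells given DMSO alone (negative), cultured in F12 medium with 1% fetal bovine serum.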 Format: cell-based. The following applies: Homo sapiens, Fibroblast, 96 h; Table 8; LL29 fibroblasts from IPF patients, TGF-β1 20 ng/mL, 4 days; dose-response 10 μM to 0.94 nM.
The next assay concerns IL-6. Nature of the assay: IL-6 inhibition in LPS-stimulated human peripheral blood mononuclear cells (HTRF).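 For all read-outs here: IL-6 detected by HTRF with an XL665- and Cryptate-labelled anti-IL-6 antibody pair, samples run in duplicate, EC50 obtained from a four-parameter Levenberg-Marquardt curve fit.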 The assay is classed as cell-based. To be noted: Homo sapiens, PBMC; for EC50: Table 9, huPBMCs, LPS 50 ng/mL, 22 hours, dose-response starting from 10 μM. (In general: Time-resolved FRET reads energy transfer from a long-lived donor to a nearby acceptor.)
Assay [5] has as its system Tau phosphorylation at Ser396 (pSer396). Nature of the assay: Tau phosphorylation assay (pSer396 ELISA / western blot) in SH-SY5Y cells.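 Note: EC50 for reduction of Tau pSer396 in lysed cells, measured by colorimetric ELISA or chemiluminescent western blot, both using the same pSer396 antibody.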 Format: cell-based, human. To be noted: SH-SY5Y cells.
The mark [6] stands for this setting: Homo sapiens, overnight (16-18 h) exposure, read-out: pSer396 Tau EC50.

Where two headings read alike, the source gives them in different places. A value given as a limit tells only on which side of the number the result lay.

Sequence of recombinant GSK3β kinase (P49841 whole entry): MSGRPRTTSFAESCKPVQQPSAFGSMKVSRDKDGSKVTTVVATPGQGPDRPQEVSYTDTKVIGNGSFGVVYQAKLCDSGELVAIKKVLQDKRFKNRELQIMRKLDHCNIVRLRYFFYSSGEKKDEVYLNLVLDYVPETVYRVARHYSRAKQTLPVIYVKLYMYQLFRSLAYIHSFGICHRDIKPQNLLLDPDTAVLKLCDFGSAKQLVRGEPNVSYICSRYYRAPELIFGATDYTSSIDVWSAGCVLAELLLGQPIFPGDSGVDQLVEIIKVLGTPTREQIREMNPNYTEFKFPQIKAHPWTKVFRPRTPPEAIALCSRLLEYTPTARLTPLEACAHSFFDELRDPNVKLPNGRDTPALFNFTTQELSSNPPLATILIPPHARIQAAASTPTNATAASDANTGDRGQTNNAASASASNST
Method for IL-6: After 22 hour incubation, a mixture of anti-IL6 XL665 and anti-IL-6 Cryptate diluted in reconstitution buffer (Catalog #62IL6PEC, Cisbio Inc., Bedford, Mass.) was added to each well. […] All samples were processed in duplicate. […] EC50 was determined using software generated by Dotmatics Limited (Windhill Bishops Stortford Herts, UK) using the Levenberg-Marquardt 4 parameter fitting procedure with finite different gradients.

For the molecule `Cc1ncc(-c2ccc3cnc(NC(=O)C4CCCCC4)cc3c2)n1C` [Compound 120, N-(6-(1,2-Dimethyl-1H-imidazol-5-yl)isoquinolin-3-yl) cyclohexanecarboxamide], the EC50 in assay [1] amounted to 2200 nM; in assay [2], 4.8 nM; on recombinant GSK3β kinase, 138 nM; in assay [3] it was 2490 nM; in assay [4], 2130 nM; in the assay with IL-6, 2290 nM.
Consider `O=C(CN1CCCC1)Nc1cc2cc(-c3cn[nH]c3C(F)(F)F)ccc2cn1` [Compound 287, 2-(Pyrrolidin-1-yl)-N-(6-(5-(trifluoromethyl)-1H-pyrazol-4-yl)isoquinolin-3-yl)acetamide], for which the half-maximal effective concentration (EC50) was 7330 nM in assay [1]; 5140 nM in assay [2]; 9840 nM on recombinant GSK3β kinase; over 10000 nM in assay [3]; 2350 nM in assay [4]; 9580 nM in the assay on IL-6. Moreover, in assay [3], the inhibition at 10 µM was found to be 47.8%.
Consider `Cn1cc(-c2ccc3cnc(NC(=O)C4CCN(S(C)(=O)=O)CC4)cc3c2)cn1` [Compound 330, N-(6-(1-Methyl-1H-pyrazol-4-yl)isoquinolin-3-yl)-1-(methylsulfonyl) piperidine-4-carboxamide], for which the concentration for a half-maximal effect (EC50) in assay [1] was found to be 449 nM; in assay [5] (setting [6]), 246 nM; in assay [3] it was 6780 nM; in assay [4], 20 nM; with IL-6, 1160 nM.
On to `Cn1cc(-c2ccc3cnc(NC(=O)N4CN5CCC[C@@H]5C4=O)cc3c2)cn1` [Compound 362, (R)—N-(6-(1-Methyl-1H-pyrazol-4-yl)isoquinolin-3-yl)-1-oxotetrahydro-1H-pyrrolo[1,2-c]imidazole-2(3H)-carboxamide], for which the half-maximal effective concentration (EC50) amounted to 951 nM in assay [1]; 132 nM in assay [2]; 1100 nM on recombinant GSK3β kinase; 5480 nM in assay [3]; 782 nM in assay [4]; 9150 nM in the assay with IL-6.
`Cc1nnc(-c2ccc3cnc(NC(=O)CN4CCOC[C@H]4C)cc3c2)s1` [Compound 953, (R)—N-(6-(5-Methyl-1,3,4-thiadiazol-2-yl)isoquinolin-3-yl)-2-(3-methylmorpholino)acetamide]: the inhibition at 10 µM in assay [1] is 48.7%; in assay [3] it was 40.3%. Also, the concentration giving a half-maximal response (EC50) in assay [1] is over 10000 nM; in assay [2], 16.8 nM; at recombinant GSK3β kinase, 23 nM; in assay [5] (setting [6]), 398 nM; in assay [3] it was over 10000 nM.
Regarding `CN1CCC(n2cc(-c3ccc4cnc(NC(=O)C5CCCCC5)cc4c3)cn2)CC1` [Compound 969, N-(6-(1-(1-Methylpiperidin-4-yl)-1H-pyrazol-4-yl)isoquinolin-3-yl) cyclohexanecarboxamide], the EC50 in assay [1] is 3930 nM; in assay [2], 50 nM; on recombinant GSK3β kinase, 7610 nM; in assay [3], 2880 nM; in assay [4], 935 nM; in the assay on IL-6 it was 9120 nM.
With `CC#CC(=O)Nc1cc2cc(-c3cnn(C)c3)ccc2cn1` [Compound 1026, N-(6-(1-Methyl-1H-pyrazol-4-yl)isoquinolin-3-yl)but-2-ynamide], the EC50 in assay [1] turned out to be 513 nM; in assay [2], 5 nM; at recombinant GSK3β kinase, 508 nM; in assay [3], 554 nM; in assay [4], 2260 nM; with IL-6 it was 9520 nM.
In the case of `Cn1cc(-c2ccc3cnc(NC(=O)[C@H]4CC[C@H](C(=O)O)CC4)cc3c2)cn1` [Compound 1032, trans-4-((6-(1-Methyl-1H-pyrazol-4-yl)isoquinolin-3-yl)carbamoyl) cyclohexane-1-carboxylic acid], the values for the inhibition at 10 µM in assay [1] and in assay [3] were 27.4% and 34.7%, respectively. Besides, the EC50 in assay [1] was over 10000 nM; in assay [2], 1.2 nM; on recombinant GSK3β kinase, 72 nM; in assay [3], over 10000 nM; in the assay with IL-6 it was 3320 nM.
In the case of `[2H]C([2H])(C(=O)Nc1cc2cc(-c3nnc(C)s3)ccc2cn1)N1CCOCC1` [Compound 1051, N-(6-(5-Methyl-1,3,4-thiadiazol-2-yl)isoquinolin-3-yl)-2-morpholinoacetamide-2,2-d2], the EC50 in assay [1] was 480 nM; in assay [2], 14.6 nM; on recombinant GSK3β kinase, 9 nM; in assay [5] (setting [6]), 147 nM; in assay [3] it was over 10000 nM. The inhibition at 10 µM in assay [3] is 22.5%.
Consider `[2H]C1([2H])OC([2H])([2H])C([2H])([2H])N(CC(=O)Nc2cc3cc(-c4nnc(C)s4)ccc3cn2)C1([2H])[2H]` [Compound 1052, N-(6-(5-Methyl-1,3,4-thiadiazol-2-yl)isoquinolin-3-yl)-2-(morpholino-d8) acetamide], for which the EC50 in assay [1] was 2280 nM; in assay [2] it was 18 nM; on recombinant GSK3β kinase, 11 nM; in assay [5] (setting [6]), 254 nM; in assay [3] it was over 10000 nM. Further, in assay [3], the inhibition at 10 µM was determined as 40.7%.
For `CC(C)CN1CCC(F)(C(=O)Nc2cc3cc(-n4nccn4)ccc3cn2)CC1` [Compound 1073, N-(6-(2H-1,2,3-triazol-2-yl)isoquinolin-3-yl)-4-fluoro-1-isobutylpiperidine-4-carboxamide], the inhibition at 10 µM in assay [1] stood at 5.9%; in assay [3], 8.5%; with IL-6 (read-out: percent value in parentheses beside EC50 >10 μM), 3.3%. Moreover, the EC50 in assay [1] is over 10000 nM; in assay [2], 1520 nM; at recombinant GSK3β kinase it was over 10000 nM; in assay [3], over 10000 nM; in assay [4] it was over 10000 nM; in the assay with IL-6, over 10000 nM.
Consider `Cn1cc(-c2ccc3cnc(NC(=O)C45CC(CO)(C4)C5)cc3c2)cn1` [Compound 1083, 3-(Hydroxymethyl)-N-(6-(1-methyl-1H-pyrazol-4-yl)isoquinolin-3-yl) bicyclo[1.1.1]pentane-1-carboxamide], for which the EC50 in assay [1] turned out to be 8210 nM; in assay [2], 4.2 nM; on recombinant GSK3β kinase it was 914 nM; in assay [3], 901 nM; in the assay with IL-6, 8730 nM.
`COC(=O)[C@H]1CC[C@H](C(=O)Nc2cc3cc(-c4cnn(C)c4)ccc3cn2)CC1` [Compound 1084, Methyl trans-4-((6-(1-methyl-1H-pyrazol-4-yl)isoquinolin-3-yl)carbamoyl) cyclohexane-1-carboxylate]: the EC50 in assay [1] is 3410 nM; in assay [2] it was 1.7 nM; at recombinant GSK3β kinase, 40 nM; in assay [3], 3670 nM; in the assay with IL-6, 752 nM.
`[2H]c1nc(NC(=O)C2CCNCC2)cc2cc(-c3cnn(C)c3)ccc12` [Compound 1085, N-(6-(1-Methyl-1H-pyrazol-4-yl)isoquinolin-3-yl-1-d)piperidine-4-carboxamide]: the EC50 was determined as 2200 nM in assay [1]; 2.4 nM in assay [2]; 83 nM on recombinant GSK3β kinase; 1240 nM in assay [3]; 453 nM in the assay on IL-6.
Turning to `[2H]c1nc(NC(=O)CN2CCCC2)cc2cc(-c3cnn(C)c3)ccc12` [Compound 1093, N-(6-(1-Methyl-1H-pyrazol-4-yl)isoquinolin-3-yl-1-d)-2-(pyrrolidin-1-yl) acetamide], the EC50 in assay [1] was 1780 nM; in assay [2], 11.7 nM; on recombinant GSK3β kinase, 47 nM; in assay [5] (setting [6]), 422 nM.
For `CCN1/C(=C/C(C)=O)Sc2ccc(O)cc21` [Indy, reference compound], in assay [5] (control DYRK1A inhibitors, read-out: EC50 in the Tau assay), the EC50 is over 10000 nM.

As a reminder, the EC50 is the concentration needed to bring the measured effect to its halfway point.
